Measurements taken from article PMC10466336, “Chemical Probe for Imaging of Polo-like Kinase 4 and Centrioles” (JACS Au, 2023).

Key:
[1] = target: T1, endogenous Plk4 in HeLa cells expressing Centrin1-GFP (Homo sapiens, UniProt O00444); test: Live- and fixed-cell confocal/STED imaging of endogenous Plk4; type: cell-based; conditions: added to live cells in culture, 1 µM (Figure S1)
T1 construct: live cell imaging of endogenous Plk4; endogenous in cells; host or cells: HeLa cells stably expressing Centrin1-GFP
T1 sequence (O00444 1-970): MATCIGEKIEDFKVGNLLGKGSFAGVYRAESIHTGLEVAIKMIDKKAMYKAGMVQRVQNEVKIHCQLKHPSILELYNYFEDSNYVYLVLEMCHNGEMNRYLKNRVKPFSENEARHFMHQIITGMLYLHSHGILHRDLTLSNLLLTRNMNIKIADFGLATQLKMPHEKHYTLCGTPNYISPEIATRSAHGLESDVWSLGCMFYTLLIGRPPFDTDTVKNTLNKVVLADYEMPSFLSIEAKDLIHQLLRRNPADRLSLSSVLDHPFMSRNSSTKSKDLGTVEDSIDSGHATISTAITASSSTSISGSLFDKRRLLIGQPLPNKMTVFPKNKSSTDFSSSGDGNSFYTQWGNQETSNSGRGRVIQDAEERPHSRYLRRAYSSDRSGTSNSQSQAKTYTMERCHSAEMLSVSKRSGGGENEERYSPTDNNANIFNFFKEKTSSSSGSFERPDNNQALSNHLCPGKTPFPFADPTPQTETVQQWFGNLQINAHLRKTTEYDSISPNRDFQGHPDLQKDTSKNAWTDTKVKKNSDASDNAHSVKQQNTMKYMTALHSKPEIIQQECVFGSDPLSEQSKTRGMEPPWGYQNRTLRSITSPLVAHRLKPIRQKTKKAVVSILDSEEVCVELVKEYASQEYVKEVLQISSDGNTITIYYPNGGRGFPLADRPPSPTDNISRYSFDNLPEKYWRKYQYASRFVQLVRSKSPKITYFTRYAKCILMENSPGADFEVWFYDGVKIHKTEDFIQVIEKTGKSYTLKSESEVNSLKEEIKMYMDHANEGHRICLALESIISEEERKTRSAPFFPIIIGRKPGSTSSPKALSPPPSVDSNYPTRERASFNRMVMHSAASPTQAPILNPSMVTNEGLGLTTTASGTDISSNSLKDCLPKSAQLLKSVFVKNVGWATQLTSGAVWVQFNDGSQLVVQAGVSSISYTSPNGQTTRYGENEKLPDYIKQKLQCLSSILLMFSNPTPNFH

Plk4 kinase domain = target: T2, Plk4 kinase domain (Homo sapiens, UniProt O00444); test: Competition binding assay based on fluorescence polarization (tracer Alexa488-PEG-N-centrinone); conditions: Alexa488-PEG-N-centrinone 1 nM, Plk4-KD 5 nM
T2 construct: Plasmids encoding fragments of Plk4 kinase domain (2-275) with 6xHis-tag were cloned in pET system vectors; made in house; host or cells: E. coli BL21 gold (DE3)
T2 sequence (O00444 2-275): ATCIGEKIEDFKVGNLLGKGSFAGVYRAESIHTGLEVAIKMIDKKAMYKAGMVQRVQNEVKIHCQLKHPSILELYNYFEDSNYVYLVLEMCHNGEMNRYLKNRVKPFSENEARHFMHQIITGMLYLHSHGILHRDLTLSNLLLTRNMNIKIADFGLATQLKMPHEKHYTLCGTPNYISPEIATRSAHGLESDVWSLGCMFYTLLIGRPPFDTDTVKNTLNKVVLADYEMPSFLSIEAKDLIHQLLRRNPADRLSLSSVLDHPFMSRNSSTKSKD
From the text: Moreover, we substituted the basic acetyl-piperazine nitrogen in compounds (1 and 2a) with an acetyl-piperidine, to avoid probe protonation and accumulation in endolysosomal compartments (Figure S1A, B).[23] […] These probes were characterized first in vitro by measuring their fluorogenicity in the presence of the 6xHis-tagged Plk4 kinase domain (KD) (Table 1). […] Next, we measured the binding affinities of the probes to the Plk4 kinase domain via a competition binding assay based on fluorescence polarization. […]
1.3.6 Fluorescence Polarization assay & competition assay […]
plate (Greiner Bio-One). Upon mixture of protein and ligand, the plate was incubated for 30 min at room temperature followed by fluorescence polarization measurements by a plate reader (TECAN Spark® 20M) using 485 nm as excitation wavelength (bandwidth 20 nm) and 535 nm as emission wavelength (bandwidth 25 nm). The obtained fluorescence polarization values from each well were plotted against the concentration of the protein. The apparent Kd values were obtained by fitting the curve to the […]
FP = FP + FPmax ― FPmin (C + C + K ― (C + C + K )2 ― 4C C ) […]
protein should be around the Kd of the tracer to ensure that enough free protein that can bind the […]
competitor, and enough signal change coming from binding and unbinding of the tracer. The solution of the tracer and protein was titrated with increasing amounts of competitors, in our case SiR650- and […]
The mixture was then incubated for an hour at room temperature and the FP was then measured on a plate reader using the same conditions as mentioned before. From the obtained FP values, we have calculated the amount of free protein in the solution for each concentration of competitor using the equation of the single-site binding isotherm:
Pfree = Kd_tracer FP ― FP
Where Pfree is concentration of free protein, Kd tracer represents the previously determined binding affinity

[2] = target: T3, 6xHis-tagged Plk4 kinase domain (KD) (Homo sapiens, UniProt O00444); test: Estimation of fluorescence increase (fluorogenicity) with Plk4 kinase domain versus BSA; conditions: mean of F(+Plk4KD)/F(+BSA) and standard deviation, N = 3; probe 3 µM, 1 h 37 °C
T3 construct: Plasmids encoding fragments of Plk4 kinase domain (2-275) with 6xHis-tag were cloned in pET system vectors; made in house; host or cells: E. coli BL21 gold (DE3)
T3 sequence (O00444 2-275): T2 sequence (O00444 2-275)
From the text: Moreover, we substituted the basic acetyl-piperazine nitrogen in compounds (1 and 2a) with an acetyl-piperidine, to avoid probe protonation and accumulation in endolysosomal compartments (Figure S1A, B).[23] This yielded a second generation of centrinone-based probes (compounds 2b–d). These probes were characterized first in vitro by measuring their fluorogenicity in the presence of the 6xHis-tagged Plk4 kinase domain (KD) (Table 1). […] Next, we measured the binding affinities of the probes to the Plk4 kinase domain via a competition binding assay based on fluorescence polarization. […]
1.3.5 Estimation of fluorescence increase
The probes were analysed as described in Lukinavičius et al. 2014 1. Briefly, SiR650 or SiR595- […]
purified Plk4 kinase domain (10 µM in 20 mM Tris, 200 mM NaCl at pH 7.5) or to a bovine serum albumin (BSA) (Sigma) solution (0.2 mg/mL in 20 mM Tris, 200 mM NaCl at pH 7.5). Final concentration of the probe was 3 µM. The samples were incubated for 1 h at 37 °C, and fluorescence was measured in a 96-well plate (Greiner Bio-One) on a plate reader (TECAN Spark® 20M).
Fluorescence emission was recorded from 570 nm to 750 nm for SiR595 probes, and 630 nm to 750 nm for SiR650 while exciting at 550 nm ± 10 nm for SiR595 probes and at 610 ± 10 nm for SiR650 probes.
A fluorescence excitation scan was recorded by measuring the emission at 660 ± 10 nm for SiR595 and 720 ± 10 nm for SiR650 probes, while exciting from 500 nm to 640 nm for SiR595 probes and from […]

[3] = test system: HeLa cells expressing Centrin1-GFP; test: Centriole phenotypic scoring (number of Centrin1-GFP foci); type: cell-based, human; conditions: 24 h incubation, scoring of Centrin1-GFP foci
From the text: Having established that SiR595-centrinone (2d) can successfully label overexpressed Plk4, we wanted to investigate whether it also marks endogenous Plk4. […] In contrast, partial Plk4 inhibition leads to increased levels of centriolar Plk4 due to partial interference with protein degradation mediated by autophosphorylation, overall resulting in centriole overamplification.[8] Therefore, both under-duplication and overamplification of centrioles can be used as a proxy for SiR595-centrinone binding to endogenous Plk4. […] We conclude that the failure of SiR595-centrinone (2d) to detect endogenous Plk4 is due to the low binding affinity of the probe in combination with low protein levels. […] In the second step, the Plk4-bound molecule is specifically reacted with an appropriate fluorogenic tetrazine dye.[27]−[33] This strategy was applied previously successfully to label various protein targets in live and fixed cells,[30],[32],[34]−[38] and we reasoned that a smaller and potentially more permeable Cen-TCO (3) derivative would likewise enable more efficient labeling of endogenous Plk4.
We conjugated trans-cyclooctene to the previously obtained compound (4) to obtain Cen-TCO (3) using the synthetic route outlined in Scheme S2. The resulting Cen-TCO (3) reacted with an appropriate tetrazine, such as SiR650-TetH (4a) (Figure S4A). The reaction was followed by LC-MS, and the data confirmed quantitative conversion of Cen-TCO (3) to the appropriate cycloaddition product Cen-Click-SiR650 (Figure S4A, D). […] To assess the phenotype caused by Cen-TCO (3), we incubated HeLa cells expressing Centrin1-GFP with different concentrations of Cen-TCO (3) for 24 h, followed by scoring of Centrin1-GFP foci numbers (Figure S5B). […] Despite the high unspecific background signal, a clear focus could be detected at centrioles (Figure 4B). […] The fwhm of the circular signal in this case was 368 ± 26 (N = 6) (Figure S7B), which corresponds to the size measured with overexpressed GFP-Plk4(K41M) (see Figure 3D), and approximately that of the torus region surrounding the centriole.[40] […]

`COc1c(Nc2cc(C)[nH]n2)nc(Sc2ccc(S(=O)(=O)Cc3cccc([N+](=O)[O-])c3F)cc2F)nc1N1CCN(CC(=O)NCCOCCNC(=O)c2ccc(C(=O)O)c(C3=C4C=CC(=N)C=C4[Si](C)(C)c4cc(N)ccc43)c2)CC1` [2a] was tested, and the “unspecific labeling in live human cells” value [1] was “high unspecific labeling”, the Kd (Plk4 kinase domain) was 26 ± 3 nM and the FPIk4/FBSA [2] was 10 ± 1.
Compound `COc1c(Nc2cc(C)[nH]n2)nc(Sc2ccc(S(=O)(=O)Cc3cccc([N+](=O)[O-])c3F)cc2F)nc1N1CCC(CC(=O)NCCOCCNC(=O)c2ccc(C(=O)O)c(C3=C4C=CC(=N)C=C4[Si](C)(C)c4cc(N)ccc43)c2)CC1` [2b] has a Kd (Plk4 kinase domain) of 14 ± 4 nM and an FPIk4/FBSA [2] of 23 ± 1.
`COc1c(Nc2cc(C)[nH]n2)nc(Sc2ccc(S(=O)(=O)Cc3cccc([N+](=O)[O-])c3F)cc2F)nc1N1CCC(CC(=O)NCCCCNC(=O)c2ccc(C(=O)O)c(C3=C4C=CC(=N)C=C4[Si](C)(C)c4cc(N)ccc43)c2)CC1` [2c] gave a Kd (Plk4 kinase domain) of 23 ± 6 nM and an FPIk4/FBSA [2] of 14 ± 2.
For `COc1c(Nc2cc(C)[nH]n2)nc(Sc2ccc(S(=O)(=O)Cc3cccc([N+](=O)[O-])c3F)cc2F)nc1N1CCOCC1` [centrinone, reference compound], the “concentration causing the centriole under-duplication phenotype” value [3] was no less than 250 nM.
With `COc1c(Nc2cc(C)[nH]n2)nc(Sc2ccc(S(=O)(=O)Cc3cccc([N+](=O)[O-])c3F)cc2F)nc1N1CCN(CC(=O)NCCOCCNC(=O)c2ccc(C(=O)[O-])c(C3=C4C=CC(=[N+](C)C)C=C4[Si](C)(C)c4cc(N(C)C)ccc43)c2)CC1` [compound 1] the “unspecific labeling in live human cells” value [1] was “high unspecific labeling”, the Kd (Plk4 kinase domain) was 48 ± 6 nM and the FPIk4/FBSA [2] was 4 ± 1.
